Entries after “also recorded” stand apart in the source; their conditions may differ. *1 amine or outer side, *2 acyl side, *3 side chain or, on linkers, in order; H or OH if unused. Where a SMILES comes first, the peptide text is derived from it. Bridges are numbered along the chain shown (N, C = ends). [ ]: non-standard residue; d: D form. The star is where a group is joined. ξ: configuration not given here. ξPro(4ξ-NH2) = O=C(C1CC(N[*:3])CN1[*:1])[*:2]; X1 = O=C(Cc1ccc(N[*:1])cc1)[*:2]; NH(2-Me-phenyl) = Cc1ccccc1N*; CO = O=C([*:1])[*:2]

Details of data set [1]: method as in PMID 31338363, PMID 26101577. Conditions: cited from earlier work.
Data set [2] concerns allergic bronchoconstriction. On the set-up: method as in PMID 10072689. The conditions noted are these: administered as an aerosol; cited from earlier work.
Data set [3] deals with α4β1/VCAM-1 interaction. On the set-up: method as in PMID 10072689. The conditions noted are these: Jurkat cell adhesion assay; read-out: IC50, inhibition of α4β1/VCAM-1 interaction; cited from earlier work.
For data set [4], the system named is Jurkat cells. In words: Jurkat cell adhesion to wells coated with compound 16 (absence of VCAM-1). In kind it is cell-based. On the procedure: In a second set of experiments, the ability of compound 16 to increase cell adhesion was tested in the absence of VCAM-1. Wells were coated by passive adsorption with compound 16 or BSA (both at 10 µg/mL) as a negative control and Jurkat cell adhesion was measured (Figure 8b).
(§1) The number of adherent cells was determined as described above.

Data set [5] deals with α4β7 integrin. Further details: method as in PMID 10072689. Conditions: cited from earlier work.
In data set [6] the target is T1, α4β1 integrin (Homo sapiens, UniProt P05556+P13612).
T1 construct: Jurkat cells endogenously express α4β1 integrin; host or cells: Jurkat E6.1 cells
The conditions noted are these: cited from earlier work.

Data set [7] deals with T1, α4β1 integrin. In words: Jurkat cell adhesion assay on VCAM-1-coated wells. The data set is classed as cell-based. The protocol: To investigate the ability of the newly synthesized cyclopeptidomimetics 12–18 to recognize and bind α4β1 integrin, cell adhesion assays were performed on VCAM-1. The compounds were evaluated for their ability to interfere with α4β1 integrin-mediated cell adhesion by using Jurkat cells, which are known to constitutively express this integrin [46, 48, 49, 50, 51].
Jurkat E6.1 cells were purchased from American Type Culture Collection (ATCC, Rockville, MD, USA) and were routinely cultured in RPMI-1640 (LifeTechnologies, Milan, Italy) supplemented with 10% FBS (fetal bovine serum, Life Technologies) and 2 mM glutamine. Cells were kept at 37 °C under 5% CO2 humidified atmosphere. Jurkat cells are a widely used cell model to study potential agonist or antagonist ligands able to modulate integrin-mediated cell adhesion. Jurkat cells endogenously express α4β1 integrin [13].
The assays were performed as previously described. In brief, black 96 well plates were coated with VCAM-1 (2 μg/mL) overnight at 4 °C; then, non-specific hydrophobic binding sites were blocked with 1% BSA (bovine serum albumin, Sigma-Aldrich) in HBSS (Life Technologies) for 30 min at 37 °C. Jurkat cells were labelled with CellTracker green CMFDA (12.5 μM, Life Technolgies) and pre-incubated with various concentration (10^−4–10^−10 M) of each new cyclopeptidomimetic or with the vehicle (DMSO) for 30 min at 37 °C. Afterwards, Jurkat cells were plated on VCAM-1-coated wells and incubated for 30 min at 37 °C. Then, wells were washed three times with 1% BSA in HBSS and Jurkat cells were lysed with 0.5% Triton X-100 in PBS for 30 min at 4 °C. Green fluorescence (Ex485 nm/Em 535 nm) was measured in an EnSpire Multimode Plate Reader (PerkinElmer, Waltham, MA, USA). Experiments were performed in quadruplicate and repeated at least three times. The number of adherent cells was determined by comparison with a standard curve made with a known concentration of labelled Jurkat cells. Data analysis and IC50/EC50 values were calculated using GraphPad Prism 6.0 (GraphPad Software, San Diego, CA, USA).
as §1

Data set [8] relates to α4 integrin. Further details: method as in PMID 30051467. Conditions: cited from earlier work.
Data set [9] deals with human α4β1 integrin. Further details: method as in PMID 30051467. The conditions noted are these: cited from earlier work.
For data set [10], the system named is allergic conjunctivitis. On the set-up: method as in PMID 30051467. The conditions noted are these: cited from earlier work.
Data set [11] deals with α4β1–positive cells. Further details: method as in PMID 16767086. Conditions: cited from earlier work.
Data set [12] addresses α4β1 receptor. Further details: method as in PMID 16767086. Conditions: Jurkat cell assay; read-out: IC50, affinity toward α4β1 receptor; cited from earlier work.
For data set [13], the system named is endothelial progenitor cells. Further details: method as in PMID 23703610. Conditions: α4β1-dependent; cited from earlier work.

T1 sequence (P13612 34-1032): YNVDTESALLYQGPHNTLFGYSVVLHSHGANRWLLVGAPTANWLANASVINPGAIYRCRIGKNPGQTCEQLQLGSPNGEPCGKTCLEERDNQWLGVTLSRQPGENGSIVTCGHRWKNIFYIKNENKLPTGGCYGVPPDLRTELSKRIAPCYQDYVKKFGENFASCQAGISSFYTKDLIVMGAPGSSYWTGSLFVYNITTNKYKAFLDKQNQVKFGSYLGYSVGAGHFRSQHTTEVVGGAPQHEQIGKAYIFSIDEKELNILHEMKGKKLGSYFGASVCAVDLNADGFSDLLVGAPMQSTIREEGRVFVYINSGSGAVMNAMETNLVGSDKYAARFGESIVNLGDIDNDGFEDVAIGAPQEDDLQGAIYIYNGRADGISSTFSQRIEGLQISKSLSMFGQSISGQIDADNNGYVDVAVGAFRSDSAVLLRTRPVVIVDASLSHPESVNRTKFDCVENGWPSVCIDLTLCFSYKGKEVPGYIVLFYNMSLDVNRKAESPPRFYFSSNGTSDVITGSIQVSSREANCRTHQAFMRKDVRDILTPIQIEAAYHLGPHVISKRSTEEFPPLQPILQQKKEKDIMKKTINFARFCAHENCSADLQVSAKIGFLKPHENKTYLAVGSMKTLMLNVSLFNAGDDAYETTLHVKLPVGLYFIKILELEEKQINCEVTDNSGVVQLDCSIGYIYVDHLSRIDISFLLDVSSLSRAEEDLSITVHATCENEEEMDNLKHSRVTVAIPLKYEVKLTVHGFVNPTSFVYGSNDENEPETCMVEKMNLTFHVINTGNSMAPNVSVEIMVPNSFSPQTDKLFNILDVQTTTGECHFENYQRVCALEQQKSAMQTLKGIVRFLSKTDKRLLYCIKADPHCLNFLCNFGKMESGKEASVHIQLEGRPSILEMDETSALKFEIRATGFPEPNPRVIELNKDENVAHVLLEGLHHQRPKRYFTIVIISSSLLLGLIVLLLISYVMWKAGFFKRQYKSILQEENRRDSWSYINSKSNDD
T1 sequence (P05556 21-798): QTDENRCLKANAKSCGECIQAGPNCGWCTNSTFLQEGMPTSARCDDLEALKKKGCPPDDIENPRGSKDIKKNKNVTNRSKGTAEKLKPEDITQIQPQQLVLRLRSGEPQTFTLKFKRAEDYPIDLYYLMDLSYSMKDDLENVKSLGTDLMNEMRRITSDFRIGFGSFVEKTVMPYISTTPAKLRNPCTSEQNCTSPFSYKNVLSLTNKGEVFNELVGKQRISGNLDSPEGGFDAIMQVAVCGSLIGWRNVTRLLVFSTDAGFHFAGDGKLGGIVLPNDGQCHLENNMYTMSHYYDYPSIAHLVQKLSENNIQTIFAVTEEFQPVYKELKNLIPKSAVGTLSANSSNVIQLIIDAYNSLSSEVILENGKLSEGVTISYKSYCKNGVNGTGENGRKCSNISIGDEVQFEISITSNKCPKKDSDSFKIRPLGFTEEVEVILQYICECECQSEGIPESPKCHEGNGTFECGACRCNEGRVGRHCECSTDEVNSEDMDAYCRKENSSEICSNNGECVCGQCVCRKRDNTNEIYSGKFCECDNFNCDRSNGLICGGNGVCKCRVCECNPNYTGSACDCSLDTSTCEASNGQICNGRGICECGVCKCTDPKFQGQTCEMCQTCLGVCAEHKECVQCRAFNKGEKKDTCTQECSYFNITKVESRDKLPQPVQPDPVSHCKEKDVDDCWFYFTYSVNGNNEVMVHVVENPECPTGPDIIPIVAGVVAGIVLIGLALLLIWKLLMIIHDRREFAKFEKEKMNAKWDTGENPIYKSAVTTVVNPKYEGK

`Cc1ccccc1NC(=O)Nc1ccc(CC(=O)N[C@@H](CC(C)C)C(=O)N[C@@H](CC(=O)O)C(=O)N[C@H](C(=O)N2CCC[C@H]2C(=O)O)C(C)C)cc1` [BIO1211, MPUPA-Leu-Asp-Val-Pro] ({NH(2-Me-phenyl)-CO}-[X1]LDVP-OH): the Enzymatic stability entry in data set [1] is given as “a certain enzymatic instability”. The “Efficacy in sheep model of allergic bronchoconstriction” value in [2] is reported as “prophylactic efficacy”. Further, the IC50 in data set [3] is 4 nM; in data set [5], 2000 nM. Also, the “Effect of BIO1211 on cell adhesion induced by coated compound 16” value in [4] (BIO1211 10 nM–100 mM, wells coated with compound 16 10 μg/mL) was “not able to reduce the increment of cell adhesion induced by compound 16”.

`Cc1ccccc1NC(=O)Nc1ccc(CNC(=O)C2=CCN(C(=O)CC(=O)O)[C@@H]2C(C)C)cc1` [Compound 11a]: in data set [6], the “IC50, inhibition of α4β1/VCAM interaction” value is recorded as “in the nanomolar range”. Further, the Enzymatic stability entry in [1] is recorded as “superior enzymatic stability respect to cyclic peptides 8–10”.

Consider `Cc1ccccc1NC(=O)Nc1ccc(CNC(=O)C2=CCN(C(=O)CC(=O)O)[C@H]2C(C)C)cc1` [Compound 11b], for which the “Inhibitory potency towards α4β1 integrin” value in data set [6] is “considerably less active”.

Turning to `Cc1ccccc1NC(=O)Nc1ccc(CC(=O)N2CC3CC2C(=O)NC(C(C)C)C(=O)NC(CC(=O)O)C(=O)NC(CC(C)C)C(=O)N3)cc1` (stereo not drawn) [Compound 16, c[(MPUPA)Amp-Val-Asp-Leu]] ({NH(2-Me-phenyl)-CO}-[X1][ξPro(4ξ-NH2)]VDL; lactam 2-C; configuration not given here), the “Behaviour in α4β1 integrin-mediated cell adhesion (agonist/antagonist)” value in [7] (Jurkat cell adhesion to VCAM-1 (2 μg/mL)) was “agonist”. Also, the EC50 in [7] (Jurkat cell adhesion to VCAM-1 (2 μg/mL), means ± SD, n = 3, read-out: EC50/IC50 (EC50 for compounds enhancing cell adhesion)) is 370 ± 90 nM. Besides, the “Effect of compound 16 on the reduced cell adhesion induced by BIO1211” value in [7] (cells pre-incubated with BIO1211 (1 μM) 30 min, then compound 16 (100 μM)) was “not able to modify the reduction in adhesion induced by BIO1211; also recorded: not able to modify the reduced cell adhesion induced by BIO1211”. Besides, the “Effect on Jurkat cell adhesion to VCAM-1” value in [7] (compound 16 100 μM) was “increasing the adhesion of Jurkat cells to VCAM-1”. Also, the “Jurkat cell adhesion to compound-coated wells” value in data set [4] (wells coated with 10 μg/mL, absence of VCAM-1, vs BSA-coated wells) was “able to induce Jurkat cell adhesion; also recorded: significant adhesion of Jurkat cells”.

Take `Cc1ccccc1NC(=O)Nc1ccc(CC(=O)N2CC[C@H](C(=O)NCC(=O)O)C2)cc1` [DS-70]: in [8], the “Antagonist activity of α4–mediated cell adhesion” value is recorded as “potent antagonist activity”. Also, in data set [9], the “Binding affinity for human α4β1 integrin” value was “high binding affinity”. For the same compound, the “Outcome in guinea pig model of allergic conjunctivitis” value in data set [10] was “successfully tested”.

With `Cc1ccccc1NC(=O)Nc1ccc(CC(=O)N[C@@H](CCCCNC(=O)/C=C/c2cccnc2)C(=O)N[C@@H](CCCC(=O)O)C(=O)NC2(C(N)=O)CCCCC2)cc1` [LLP2A], in data set [11], the “Effect on cell proliferation and survival of α4β1–positive cells” value is “without any effect”. In addition, the IC50 in [12] is 0.002 nM.

For the compound `CCCC[C@@H](COC(=O)N(Cc1cccs1)Cc1cccs1)NC(=O)N[C@@H](CC(=O)OC)c1ccc2c(c1)OCO2` [THI0019], the “Effect on endothelial progenitor cells in vitro” value in [13] is “enhanced the rolling, spreading, adhesion, and migration”.

The record behind these values is PMC8512764, “New 4-Aminoproline-Based Small Molecule Cyclopeptidomimetics as Potential Modulators of α4β1 Integrin” (Molecules, 2021).
